The values below come from paper PMC10212229 (Pharmaceutical Research, 2023).

One series relates to Caco-2. To be noted: cited from earlier work.
Series [1] is described as follows: Paxlovid PBPK model verification, nirmatrelvir predicted vs observed exposure. On the set-up: species or system human.
The test system of the next series is MDCK-LE. To be noted: cited from earlier work.
A short description of series [2]: In vitro precipitation test of nirmatrelvir SDD formulation. The format is physicochemical. The settings on record: Pfizer data on file.
The nature of series [3]: Clinical pharmacokinetics of nirmatrelvir in healthy volunteers. The format is in vivo, human. To be noted: for renal clearance in the presence and absence of ritonavir: with vs without ritonavir.
The next series concerns CYP3A4. To be noted: cited from earlier work.
For series [4] the following is noted: without ritonavir coadministration; cited from earlier work.
Series [5] in a line: Simcyp ritonavir first-order compound file. Further details: species or system human. The settings on record: PK and DDI.

Entries after “also recorded” stand apart in the source; their conditions may differ.

`CC(C)(C)[C@H](NC(=O)C(F)(F)F)C(=O)N1C[C@H]2[C@@H]([C@H]1C(=O)N[C@H](C#N)C[C@@H]1CCNC1=O)C2(C)C` [Nirmatrelvir, nirmatrelvir]: the Papp in the series with Caco-2 is listed as 0.66–1.19 10^–6 cm/s; in the series on MDCK-LE it was 1.76 10^–6 cm/s. The “deviation of predicted AUC and Cmax from the observed” value in series [1] is listed as at most 20%. The “period remained in solution without precipitating” value in series [2] is reported as 24 h. The “oral clearance (CLPO)” value in series [3] (SDD 300 mg single dose without ritonavir, Dataset #1, geometric mean) is given as 28.36 L/h. Besides, the entries for the “renal clearance in the presence and absence of ritonavir” value in series [3] and in series [3] (listed as nirmatrelvir) were “did not change” and “remains the same”, respectively. The “in vitro fm,CYP3A4” value in the series with CYP3A4 (formation rate of the major metabolites with selective inhibitors) is listed as 0.99. Also, the main metabolizing enzyme result in the series on CYP3A4 (in vitro reaction phenotyping data) is reported as “mainly metabolized by CYP3A4; also recorded: predominantly metabolized by CYP3A4”. Besides, the half-life (in general, the time needed for the level to fall by half in the phase considered) in series [4] was 2 h.
For the molecule `CC(C)c1nc(CN(C)C(=O)N[C@H](C(=O)N[C@@H](Cc2ccccc2)C[C@H](O)[C@H](Cc2ccccc2)NC(=O)OCc2cncs2)C(C)C)cs1` [Ritonavir, ritonavir], in series [5], the “predicted vs observed values, ritonavir model” value is “within twofold”.
